# Source: ChEMBL document CHEMBL1138447, “New Rev-export inhibitor from Alpinia galanga and structure-activity relationship” (Bioorg Med Chem Lett, 2009)
# The source made the active and inactive calls. The rule behind the calls is not given here.
# Test system: HeLa
# Assay: Inhibition of hemagglutininin-tagged HIV1 Rev protein nuclear export in human HeLa cells assessed as localization at 5 uM by indirect fluorescent antibody technique
# Type: cell-based
# Settings: Human immunodeficiency virus 1
smiles,measurement,value
C=C[C@H](OC(C)=O)c1ccc(OC(C)=O)cc1,Activity,Active
